Results reported in patent US8211883B2, “Topical delivery of phthalocyanines” (priority 2004, dated 2012).
Marks after values point to notes of the source that are not given here.

What was measured:
[1] = system: Chinese hamster V79-379 lung fibroblasts; assay: Clonogenic cell survival of V79 cells after photodynamic treatment; type: cell-based; details: for LD 90 (light dosage that kills 90% of cells): 18 hours, 675 nm red light, VII# preplated data only, XXI* not totally soluble at 0.5 mM
Experimental: Cells were irradiated at a density of approximately 2×10^6 per 25 cm^2 flask. Immediately after irradiation, the cell monolayer was treated with trypsin, and appropriate aliquots were plated in triplicate to give 100 to 200 colonies in each 10-cm Petri dish. Cell survival was determined by the ability of the cells to form colonies containing at least 50 cells. The response of cells treated with 1 μM AlPcCl and light was compared in each experiment.
Photocytotoxicity of the phthalocyanines compounds I to VI was also assessed by clonogenic assay (Table 1, FIG. 1). In all experiments, 1 μM AlPcCl was included for comparison purposes. From the survival curves (FIG. 1), the fluence reducing the cell survival to 10% (F10) was obtained. The ratio of the F10 for AlPcCl and the F10 for the test compound is recorded in Table 1. Compounds I and II appear to be nearly as efficient photosensitizers as AlPcCl, while compound IV (assayed at half the concentration) was almost twice as efficient as the standard AlPcCl. […] However, in spite of the low efficiency of compound V in inhibiting cell growth, survival measurements were made for this compound, because it was taken up into V79 cells somewhat more efficiently than compounds III and VI.
In order to take differences in cellular uptake into consideration in the assessment of the relative efficiency of these phthalocyanines as photosensitizers of V79 cells, the survival data were replotted against the product of intracellular phthalocyanine concentration and light fluence (FIG. 2). From these curves, the product of intracellular concentration and light fluence reducing survival to 10% (CF10) was obtained, and comparisons of the values for AlPcCl and the test compounds are recorded in Table 1. By this and the other criteria, compound IV appears to be the most efficient photosensitizer. However, when consideration is given to the lesser cell uptake of compound V, it appears to be about as strong a photosensitizer as compound IV.
Using the cell culture methods described above, V79 cells Chinese hamster lung fibroblasts were treated with either 0.5 or 1.0 μM of the phthalocyanines listed in Table 3. About 18 hours thereafter, the cells were irradiated with increasing doses of 675 nm broad band red light from a 500 W tungsten-halogen lamp fitted with a 600 nm high pass filter, to determine the light dosage that would kill 90% of the phthalocyanine treated cells. Where 90% of the cells were not killed, the maximum percent of cells killed were determined, (expressed as % survival) and the related light dosage recorded.

[2] = system: Chinese hamster V79-379 lung fibroblasts; assay: Uptake of phthalocyanines into V79 cells; details: for n Moles/10^6 Cells/μM (composite uptake value): V79 cells, average of all data, asterisk: listed value is for 1 μM, average would be higher
Experimental: Chinese hamster V79-379 lung fibroblasts were grown in monolayer culture in McCoy's 5A medium (Gibco Laboratories, Grand Island, N.Y.) augmented with 10% calf serum and buffered with 20 mM HEPES (pH 7.4).
Total uptake was determined by scraping the phthalocyanine-treated monolayer, collecting the cells on a glass-fiber filter, and extracting the phthalocyanine in ethanol, as previously described by Ramakrishnan, et al., 1989. (Ramakrishnan, N., M. E. Clay, M. F. Horng, A. R. Antunez, & H. H. Evans, “DNA Lesions and DNA Degradation in Mouse Lymphoma L5178Y Cells After Photodynamic Treatment Sensitized by Chloroaluminum Phthalocyanine”, Photochem. Photobiol, in press, 1989). The amount of drug was determined by absorption at 674 nm and expressed relative to the number of cells, as measured in a Coulter cell counter on an aliquot of the cell population. Controls included cells not treated with drug, medium alone, and drug-containing medium without cells.
The cells were treated with 1 μM AlPcCl (from Eastman Kodak, Rochester, N.Y.) or with phthalocyanine compositions I-VI (0.5-1.0 μM final concentration in the medium) for 18 hours by adding the appropriate volume of a 1.0 mM stock solution in dimethylformamide (DMF) to the culture medium. The growth medium was replaced with 4 mL Hank's balanced salt solution (HBSS), and the cells were irradiated. The light source was a 500 W tungsten-halogen lamp located approximately 29 inches below the surface of a glass exposure tray. The visible light administered to the cells was filtered to allow passage of only that portion of the visible spectrum above 600 nm (Lee Primary red filter No. 106, Vincent Lighting, Cleveland, Ohio). The fluence rate was approximately 0.074 kJ/m^2/s at the level of the cell monolayer.
V79 cells Chinese hamster lung fibroblasts were cultured using the cell culture methods described above. The phthalocyanines listed in table 2 were added to the cultures typically at concentrations of 1 μM, 2 μM, and/or 4 μM and incubated for 18 hours, after which aliquots of the cells were counted and other aliquots were collected on a glass fiber filter. When the filters were dry, the phthalocyanines were extracted into ethanol and the absorption determined at the peak wavelength, usually 668 nm. Values were converted to nmoles taken up by 10^6 cells, using an extinction coefficient of 2.93×10^5.

L5178Y cells = assay: Induction of apoptosis (DNA ladder) in L5178Y cells after PDT; type: cell-based, Mouse; details: for Fluence, Minimum Demonstrated Condition to Induce Apoptosis / C × F Ld90, Minimum Demonstrated Condition to Induce Apoptosis: 0.5 μM; for C × F Ld90, Minimum Demonstrated Condition to Induce Apoptosis: product of concentration and fluence; for induction of apoptosis: 1 μM at a fluence of 30 kJ/m^2

SMILES	Uptake Into V79 Cells, 1 μM ([2]; 18 hours) [n Moles/10^6 cells]	Uptake Into V79 Cells, 4 μM ([2]; 18 hours) [n Moles/10^6 cells]	n Moles/10^6 Cells/μM (composite uptake value) [2]	further results
C[Si](C)(CCCCN)O[Si]1(O[Si](C)(C)CCCCN)n2c3c4ccccc4c2N=C2N=C(N=c4c5ccccc5c(n41)=NC1=NC(=N3)c3ccccc31)c1ccccc12 [Compound VII, SiPc[OSi(CH3)2(CH2)4NH2]2]	0.2 ± 0.03	1.1 ± 0.5	0.2 n Moles/10^6 Cells/μM	LD 90 (light dosage that kills 90% of cells) ([1]; 0.5 μM): 4 kj/m^2; Fluence, Minimum Demonstrated Condition to Induce Apoptosis (L5178Y cells): 3.0 kJ/m^2; C × F Ld90, Minimum Demonstrated Condition to Induce Apoptosis (L5178Y cells): 1.5 kJ/m^2
C[Si](C)(CCCN=C=S)O[Si]1(O)n2c3c4ccccc4c2N=C2N=C(N=c4c5ccccc5c(n41)=NC1=NC(=N3)c3ccccc31)c1ccccc12 (centres unmarked) [Compound XXVI, HOSiPcOSi(CH3)2(CH2)3NCS]				Maximum Effect (% survival at kj/m^2) ([1]; 1 μM, at 30 kj/m^2): 100% at 30
CCCCN(CCCC)CCC[Si](C)(C)O[Si]1(O)n2c3c4ccccc4c2N=C2N=C(N=c4c5ccccc5c(n41)=NC1=NC(=N3)c3ccccc31)c1ccccc12 (centres unmarked) [Compound XXV, HOSiPcOSi(CH3)2(CH2)3N(CH2)3CH3)2]	0.02 ± 0.02	1.5 ± 0.3	<0.05* n Moles/10^6 Cells/μM	Maximum Effect (% survival at kj/m^2) ([1]; 0.5 μM, at 8 kj/m^2): 87% at 8
CCCCCCCCCCCC[N+](C)(C)CCC[Si](C)(C)[O][Al]1[n]2c3c4ccccc4c2N=C2N=C(N=c4c5ccccc5c([n]41)=NC1=NC(=N3)c3ccccc31)c1ccccc12.[I-] [Compound XXI, AlPcOSi(CH3)2(CH2)3N^+(CH3)2)(CH2)11CH3I^−]	1.2 ± 0.2	5.8 ± 0.4	1.3 n Moles/10^6 Cells/μM	LD 90 (light dosage that kills 90% of cells) ([1]; 0.5 μM): 15* kj/m^2
CCN(CC)c1ccc2c(c1)Oc1cc(N(CC)CC)ccc1C21c2ccccc2C(=O)N1CCCC[Si](C)(C)O[Si]1(O[Si](C)(C)C(C)(C)C)n2c3c4ccccc4c2N=C2N=C(N=c4c5ccccc5c(n41)=NC1=NC(=N3)c3ccccc31)c1ccccc12 (centres unmarked) [Compound XV, (CH3)3C(CH3)2SiOSiPcOSi(CH3)2(CH2)4NCOC27H30N2O]	0.01 ± 0.01	0.14 ± 0.12	<0.05 n Moles/10^6 Cells/μM	Maximum Effect (% survival at kj/m^2) ([1]; 4 μM, at 20 kj/m^2): 81% at 20; induction of apoptosis (L5178Y cells): did not induce apoptosis
CN(C)CCCCCCCC[Si](C)(C)O[Si]1(O)n2c3c4ccccc4c2N=C2N=C(N=c4c5ccccc5c(n41)=NC1=NC(=N3)c3ccccc31)c1ccccc12 (centres unmarked) [Compound XXII, HOSiPcOSi(CH3)2(CH2)8N(CH3)2]				LD 90 (light dosage that kills 90% of cells) ([1]; 0.5 μM): 10 kj/m^2; Fluence, Minimum Demonstrated Condition to Induce Apoptosis (L5178Y cells): 10.0 kJ/m^2; C × F Ld90, Minimum Demonstrated Condition to Induce Apoptosis (L5178Y cells): 5.0 kJ/m^2
C[Si](C)(CCCN1CCOCC1)O[Si]1(O)n2c3c4ccccc4c2N=C2N=C(N=c4c5ccccc5c(n41)=NC1=NC(=N3)c3ccccc31)c1ccccc12 (centres unmarked) [Compound XIX, HOSiPcOSi(CH3)2(CH2)3NC4H8O]	0.3 ± 0.1	2.4 ± 0.5		Maximum Effect (% survival at kj/m^2) ([1]; 1 μM, at 10 kj/m^2): 81% at 10
C[Si](C)(CCCO)O[Si]1(O)n2c3c4ccccc4c2N=C2N=C(N=c4c5ccccc5c(n41)=NC1=NC(=N3)c3ccccc31)c1ccccc12 (centres unmarked) [Compound XVII, HOSiPCOSi(CH3)2(CH2)3OH]		1.7 ± 0.2	0.4 n Moles/10^6 Cells/μM	Maximum Effect (% survival at kj/m^2) ([1]; 1 μM, at 10 kj/m^2): 19% at 10
CN(C)CCCN(CCCN(C)C)CCC[Si](C)(C)O[Si]1(O)n2c3c4ccccc4c2N=C2N=C(N=c4c5ccccc5c(n41)=NC1=NC(=N3)c3ccccc31)c1ccccc12 (centres unmarked) [Compound XXVII, HOSiPcOSi(CH3)2(CH2)3N[(CH2)3N(CH3)2]2]	1.8	5.0 ± 0.01	1.5 n Moles/10^6 Cells/μM	LD 90 (light dosage that kills 90% of cells) ([1]; 0.5 μM): 6.8 kj/m^2
CC(=O)OCCC[Si](C)(C)O[Si]1(O)n2c3c4ccccc4c2N=C2N=C(N=c4c5ccccc5c(n41)=NC1=NC(=N3)c3ccccc31)c1ccccc12 (centres unmarked) [Compound XIII, HOSiPcOSi(CH3)2(CH2)3OCOCH3]		1.7 ± 0.3	0.4 n Moles/10^6 Cells/μM	Maximum Effect (% survival at kj/m^2) ([1]; 1 μM, at 15 kj/m^2): 88% at 15
C[Si](C)(CCCN1CCSCC1)O[Si]1(O)n2c3c4ccccc4c2N=C2N=C(N=c4c5ccccc5c(n41)=NC1=NC(=N3)c3ccccc31)c1ccccc12 (centres unmarked) [Compound XXIV, HOSiPCOSi(CH3)2(CH2)3NC4H8S]	0.003 ± 0.001	1.3 ± 0.1	<0.05* n Moles/10^6 Cells/μM	Maximum Effect (% survival at kj/m^2) ([1]; 0.5 μM, at 10 kj/m^2): 100% at 10
C[Si](C)(CCCCNC(=S)N[C@@H]1O[C@H](CO)[C@@H](O)[C@H](O)[C@H]1O)O[Si]1(O[Si](C)(C)CCCCNC(=S)N[C@@H]2O[C@H](CO)[C@@H](O)[C@H](O)[C@H]2O)n2c3c4ccccc4c2N=C2N=C(N=c4c5ccccc5c(n41)=NC1=NC(=N3)c3ccccc31)c1ccccc12 [Compound XI, SiPc[OSi(CH3)2(CH2)4NHCSNHC6H111O5]2]	0.1	0.3 ± 0.1	0.1 n Moles/10^6 Cells/μM	Maximum Effect (% survival at kj/m^2) ([1]; 1 μM, at 20 kj/m^2): 100% at 20; induction of apoptosis (L5178Y cells): did not induce apoptosis
CCCCN1CCN(CCC[Si](C)(C)O[Si]2(O)n3c4c5ccccc5c3N=C3N=C(N=c5c6ccccc6c(n52)=NC2=NC(=N4)c4ccccc42)c2ccccc23)CC1 (centres unmarked) [Compound XXXI, HOSiPCOSi(CH3)2(CH2)3NC4H8N(CH2)3CH3]			0.3 n Moles/10^6 Cells/μM	Maximum Effect (% survival at kj/m^2) ([1]; 0.5 μM, at 10 kj/m^2): 30% at 10; Uptake Into V79 Cells, 2 μM ([2]; 2 μM, 18 hours): 0.61 ± 0.1 n Moles/10^6 cells
CCCCCCCCCCCC[N+](C)(C)CCC[Si](C)(C)O[Si]1(O[Si](C)(C)CCC[N+](C)(C)CCCCCCCCCCCC)n2c3c4ccccc4c2N=C2N=C(N=c4c5ccccc5c(n41)=NC1=NC(=N3)c3ccccc31)c1ccccc12 [Compound XIV, SiPc[OSi(CH3)2(CH2)3N^+(CH3)2(CH2)11CH3]22I^−]	0.03 ± 0.01	0.05 ± 0.01	<0.05 n Moles/10^6 Cells/μM	Maximum Effect (% survival at kj/m^2) ([1]; 1 μM, at 10 kj/m^2): 93% at 10; induction of apoptosis (L5178Y cells): did not induce apoptosis
